Test results as given in US20250304644A1, “PEPTIDES TRIPLE AGONISTS OF GIP, GLP-1 AND GLP-2” (BAINAN BIOTECH APS, priority 2021, published 2025).
*1 amine or outer side, *2 acyl side, *3 side chain or, on linkers, in order; H or OH if unused. Where no end group is shown, it is not given here. Side-chain parts run from the residue outwards. The star is where a group is joined. C18 diacid = O=C(O)CCCCCCCCCCCCCCCCC(=O)*; γGlu = O=C(O)[C@H](CCC(=O)[*:2])N[*:1]; AEEA = NCCOCCOCC(=O)O

Tests used:
human SNP-tagged GLP-2R = molecular target: T1, human SNP-tagged GLP-2R (Homo sapiens, UniProt O95838); test: Receptor internalization assay, HEK293A cells expressing human SNAP-tagged GLP-2R; format: cell-based
T1 construct: expressed in transfected cells; host or cells: HEK293A
T1 sequence (O95838 1-553): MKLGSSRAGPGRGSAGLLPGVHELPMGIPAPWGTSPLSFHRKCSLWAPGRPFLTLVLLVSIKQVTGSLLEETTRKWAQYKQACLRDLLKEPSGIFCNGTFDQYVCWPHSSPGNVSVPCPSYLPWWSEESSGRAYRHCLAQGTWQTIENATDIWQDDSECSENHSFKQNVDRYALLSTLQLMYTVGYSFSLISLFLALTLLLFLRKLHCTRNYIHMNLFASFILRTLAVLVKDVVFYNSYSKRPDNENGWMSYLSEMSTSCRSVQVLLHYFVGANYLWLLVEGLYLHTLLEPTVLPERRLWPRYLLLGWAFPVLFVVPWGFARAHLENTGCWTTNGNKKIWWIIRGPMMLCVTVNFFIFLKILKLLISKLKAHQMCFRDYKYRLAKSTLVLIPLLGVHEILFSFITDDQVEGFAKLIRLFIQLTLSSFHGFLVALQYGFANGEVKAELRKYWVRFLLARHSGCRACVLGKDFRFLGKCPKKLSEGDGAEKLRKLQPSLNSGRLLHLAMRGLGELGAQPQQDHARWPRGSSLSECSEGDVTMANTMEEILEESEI

[1] = molecular target: human glucagon receptor (GCGR) (Homo sapiens, UniProt P47871); test: Gs activation measured as cAMP accumulation on human glucagon receptor (FIG. 1 radar plot); format: cell-based; conditions: read-out: −p Log EC50 on human glucagon receptor (GCGR) (converted)
human glucagon receptor (GCGR) (Homo sapiens, UniProt P47871), sequence (P47871 26-477): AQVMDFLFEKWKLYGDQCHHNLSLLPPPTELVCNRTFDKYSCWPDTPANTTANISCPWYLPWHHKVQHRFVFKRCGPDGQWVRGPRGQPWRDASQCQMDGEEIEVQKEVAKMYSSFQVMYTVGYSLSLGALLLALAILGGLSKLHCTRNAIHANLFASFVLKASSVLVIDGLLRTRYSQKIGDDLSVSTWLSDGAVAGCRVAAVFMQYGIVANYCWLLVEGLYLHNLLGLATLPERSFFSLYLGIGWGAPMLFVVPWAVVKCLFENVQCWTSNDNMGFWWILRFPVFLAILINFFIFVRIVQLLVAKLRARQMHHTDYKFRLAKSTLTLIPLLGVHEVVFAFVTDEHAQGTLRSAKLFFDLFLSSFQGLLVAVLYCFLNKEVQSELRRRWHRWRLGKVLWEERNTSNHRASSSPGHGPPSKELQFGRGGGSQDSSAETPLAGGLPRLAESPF
Description: Here, the compounds 20, 21, 22, 28, 30, 31,32, 33, 34, 35 are shown in terms of their potencies in Gs activation, measured as CAMP accumulation, depicted in a radar plot. The numbers refer to −p Log EC50 values. […] The outer rings correspond to higher potencies, the inner rings correspond to lower potencies.

human GLP-1R = molecular target: T2, human GLP-1R (Homo sapiens, UniProt P43220); test: cAMP assay (HitHunter) in transiently transfected COS-7 cells expressing human GLP-1R; format: cell-based
T2 construct: host or cells: COS-7
T2 sequence (P43220 24-463): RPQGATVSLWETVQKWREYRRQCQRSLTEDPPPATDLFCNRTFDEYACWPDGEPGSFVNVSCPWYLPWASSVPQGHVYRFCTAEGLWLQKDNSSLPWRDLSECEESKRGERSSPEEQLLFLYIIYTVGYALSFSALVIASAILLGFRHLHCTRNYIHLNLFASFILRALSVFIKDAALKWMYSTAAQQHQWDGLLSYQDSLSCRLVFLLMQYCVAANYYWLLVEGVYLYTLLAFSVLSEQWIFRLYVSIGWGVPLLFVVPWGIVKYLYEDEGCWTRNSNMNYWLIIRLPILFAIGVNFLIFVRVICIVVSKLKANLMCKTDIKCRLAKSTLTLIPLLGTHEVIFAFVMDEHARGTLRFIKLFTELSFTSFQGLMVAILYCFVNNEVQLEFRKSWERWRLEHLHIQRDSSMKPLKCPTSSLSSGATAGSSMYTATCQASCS

human GIPR = molecular target: T3, human GIPR (Homo sapiens, UniProt P48546); test: cAMP assay (HitHunter) in transiently transfected COS-7 cells expressing human GIPR; format: cell-based
T3 construct: host or cells: COS-7
T3 sequence (P48546 22-466): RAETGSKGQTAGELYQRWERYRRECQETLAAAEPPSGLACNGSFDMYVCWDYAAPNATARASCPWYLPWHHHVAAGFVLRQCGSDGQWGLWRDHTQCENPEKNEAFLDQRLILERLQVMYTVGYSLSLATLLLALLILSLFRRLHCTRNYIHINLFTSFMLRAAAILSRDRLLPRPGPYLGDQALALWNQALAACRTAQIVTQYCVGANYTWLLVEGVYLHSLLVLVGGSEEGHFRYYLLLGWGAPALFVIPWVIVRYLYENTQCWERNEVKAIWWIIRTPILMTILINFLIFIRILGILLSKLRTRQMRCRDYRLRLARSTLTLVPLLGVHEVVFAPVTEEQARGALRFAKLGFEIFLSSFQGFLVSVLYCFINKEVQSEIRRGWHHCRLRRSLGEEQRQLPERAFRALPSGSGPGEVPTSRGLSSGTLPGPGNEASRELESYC

human SNAP-tagged GLP-1R [2] = molecular target: T4, human SNAP-tagged GLP-1R (Homo sapiens, UniProt P43220); test: Receptor internalization assay, HEK293A cells expressing human SNAP-tagged GLP-1R; format: cell-based
T4 construct: expressed in transfected cells; host or cells: HEK293A
T4 sequence (P43220 24-463): as the sequence (P43220 24-463) above

human GLP-2R = molecular target: T5, human GLP-2R (Homo sapiens, UniProt O95838); test: cAMP assay (HitHunter) in transiently transfected COS-7 cells expressing human GLP-2R; format: cell-based
T5 construct: host or cells: COS-7
T5 sequence (O95838 1-553): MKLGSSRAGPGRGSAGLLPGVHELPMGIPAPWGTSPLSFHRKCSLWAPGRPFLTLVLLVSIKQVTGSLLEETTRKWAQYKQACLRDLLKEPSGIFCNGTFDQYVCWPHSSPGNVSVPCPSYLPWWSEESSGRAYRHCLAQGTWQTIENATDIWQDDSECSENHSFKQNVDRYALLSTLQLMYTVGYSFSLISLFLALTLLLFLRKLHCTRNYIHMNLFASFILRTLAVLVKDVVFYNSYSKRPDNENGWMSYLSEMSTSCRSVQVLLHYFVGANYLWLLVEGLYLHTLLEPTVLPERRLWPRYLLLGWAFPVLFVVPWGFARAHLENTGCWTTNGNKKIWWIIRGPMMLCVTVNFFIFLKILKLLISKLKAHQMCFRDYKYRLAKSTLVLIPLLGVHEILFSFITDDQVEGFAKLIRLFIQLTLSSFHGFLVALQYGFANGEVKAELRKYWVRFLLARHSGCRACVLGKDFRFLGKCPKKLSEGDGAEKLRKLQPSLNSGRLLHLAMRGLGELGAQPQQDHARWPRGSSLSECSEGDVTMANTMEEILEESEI

human SNAP-tagged GIPR = molecular target: T6, human SNAP-tagged GIPR (Homo sapiens, UniProt P48546); test: Receptor internalization assay, HEK293A cells expressing human SNAP-tagged GIPR; format: cell-based
T6 construct: host or cells: HEK293A
T6 sequence (P48546 22-466): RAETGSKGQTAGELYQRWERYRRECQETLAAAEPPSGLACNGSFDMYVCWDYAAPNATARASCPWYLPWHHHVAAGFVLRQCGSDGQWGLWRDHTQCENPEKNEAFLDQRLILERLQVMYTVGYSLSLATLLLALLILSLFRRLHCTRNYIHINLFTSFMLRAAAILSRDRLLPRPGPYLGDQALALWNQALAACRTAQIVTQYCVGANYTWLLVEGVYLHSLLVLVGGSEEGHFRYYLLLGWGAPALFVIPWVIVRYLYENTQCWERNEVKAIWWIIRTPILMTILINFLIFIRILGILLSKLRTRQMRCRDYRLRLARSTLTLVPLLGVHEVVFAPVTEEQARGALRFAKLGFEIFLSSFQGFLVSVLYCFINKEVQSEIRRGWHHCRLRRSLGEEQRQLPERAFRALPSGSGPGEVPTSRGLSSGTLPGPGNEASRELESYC

[3] = molecular target: human GLP-1R (glucagon-like peptide-1 receptor) (human, UniProt P43220 24-463); test: cell-based or functional assay
human SNAP-tagged GLP-1R [4] = molecular target: human SNAP-tagged GLP-1R (human, UniProt P43220 24-463, SNAP tag labeled with Tag-Lite SNAP-Lumi4-Tb); test: cell-based or functional assay
human SNAP-tagged GLP-2R = molecular target: T7, human SNAP-tagged GLP-2R (human, UniProt O95838 1-553, SNAP tag labeled with Tag-Lite SNAP-Lumi4-Tb); test: cell-based or functional assay
T7 sequence (looked up): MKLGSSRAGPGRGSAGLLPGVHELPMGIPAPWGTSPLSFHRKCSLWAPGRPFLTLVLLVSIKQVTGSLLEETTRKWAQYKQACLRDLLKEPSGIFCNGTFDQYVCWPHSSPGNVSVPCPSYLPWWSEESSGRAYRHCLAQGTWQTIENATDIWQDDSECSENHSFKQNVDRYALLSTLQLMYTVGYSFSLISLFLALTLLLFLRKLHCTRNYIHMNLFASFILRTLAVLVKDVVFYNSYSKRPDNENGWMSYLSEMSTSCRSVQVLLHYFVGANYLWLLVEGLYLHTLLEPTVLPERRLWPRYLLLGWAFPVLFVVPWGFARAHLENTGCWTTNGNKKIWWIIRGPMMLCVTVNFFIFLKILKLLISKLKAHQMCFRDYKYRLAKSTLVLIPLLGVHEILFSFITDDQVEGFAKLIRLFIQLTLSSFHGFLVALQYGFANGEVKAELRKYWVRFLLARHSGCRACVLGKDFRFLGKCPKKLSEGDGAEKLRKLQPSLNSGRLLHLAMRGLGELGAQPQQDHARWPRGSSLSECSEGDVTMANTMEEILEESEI

[5] = molecular target: T8, Human N-terminally SNAP-tagged GIPR (human, UniProt P48546 22-466, SNAP tag labeled with Tag-Lite SNAP-Lumi4-Tb); test: cell-based or functional assay
T8 sequence (looked up): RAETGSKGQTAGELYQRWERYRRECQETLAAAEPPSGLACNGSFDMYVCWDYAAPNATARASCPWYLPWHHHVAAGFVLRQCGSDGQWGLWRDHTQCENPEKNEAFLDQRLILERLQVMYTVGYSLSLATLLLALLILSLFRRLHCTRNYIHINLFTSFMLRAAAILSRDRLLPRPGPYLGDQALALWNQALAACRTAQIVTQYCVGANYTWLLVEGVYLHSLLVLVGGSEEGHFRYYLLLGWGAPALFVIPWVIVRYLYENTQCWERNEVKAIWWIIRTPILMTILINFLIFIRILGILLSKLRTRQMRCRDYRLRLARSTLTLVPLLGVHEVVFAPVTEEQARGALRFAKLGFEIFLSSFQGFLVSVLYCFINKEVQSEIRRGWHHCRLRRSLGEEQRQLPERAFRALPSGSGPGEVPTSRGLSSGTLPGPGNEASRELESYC

[6] = molecular target: T9, human GLP-2R (glucagon-like peptide-2 receptor) (human, UniProt O95838 1-553); test: cell-based or functional assay
T9 sequence (looked up): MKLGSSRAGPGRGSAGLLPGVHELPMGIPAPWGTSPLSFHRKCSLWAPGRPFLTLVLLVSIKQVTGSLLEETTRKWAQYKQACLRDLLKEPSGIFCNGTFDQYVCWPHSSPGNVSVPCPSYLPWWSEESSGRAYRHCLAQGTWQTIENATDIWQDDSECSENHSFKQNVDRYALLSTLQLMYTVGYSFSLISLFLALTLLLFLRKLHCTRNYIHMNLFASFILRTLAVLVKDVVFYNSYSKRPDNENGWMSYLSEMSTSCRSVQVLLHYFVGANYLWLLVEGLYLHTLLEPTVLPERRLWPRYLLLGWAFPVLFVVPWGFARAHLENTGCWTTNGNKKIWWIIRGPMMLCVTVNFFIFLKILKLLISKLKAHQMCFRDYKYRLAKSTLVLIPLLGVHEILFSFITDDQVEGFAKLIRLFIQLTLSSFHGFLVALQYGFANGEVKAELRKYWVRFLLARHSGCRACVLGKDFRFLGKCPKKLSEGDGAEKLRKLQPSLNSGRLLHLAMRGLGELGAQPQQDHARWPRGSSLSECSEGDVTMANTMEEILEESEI

[7] = molecular target: human glucagon receptor (GCGR) (human, UniProt P47871 26-477, limits assumed); test: cell-based or functional assay
human glucagon receptor (GCGR) (human, UniProt P47871 26-477, limits assumed), sequence (P47871 26-477 limits assumed): as the sequence (P47871 26-477) above

[8] = AUC of sigmoid curves up to 1 μM, 60 minutes at 37° C.

HADGTFTSDYSTILDK([AEEA-AEEA-γGlu-C18 diacid])LAARDFINWLIQTKGKKNDWKHNITQ-OH [Compound 21]
Absolute hGLP-2R internalization (AUC) (human SNP-tagged GLP-2R; [8]): 36.3
GLP-2R internalization (in words) (human SNP-tagged GLP-2R; compared to native GLP-2): comparable to native GLP-1 and GLP-2
Relative hGLP-2R internalization (%) (human SNP-tagged GLP-2R; relative to native ligand = 100): 74.6%
EC50 [1]: > 100 nM
Emax (human GLP-1R; COS-7, normalized to highest concentration of the endogenous ligand, read-out: Efficacy GLP-1R (Emax)): 122%
EC50 (human GLP-1R; cAMP, COS-7 cells, human GLP-1R, read-out: EC50 (nM) GLP-1R): 0.05 nM
Emax (human GIPR; COS-7, normalized to highest concentration of the endogenous ligand, read-out: Efficacy GIPR (Emax)): 104%
EC50 (human GIPR; cAMP, COS-7 cells, human GIPR): 0.398 nM
Absolute hGLP-1R internalization (AUC) (human SNAP-tagged GLP-1R [2]; [8]): 94.7
GLP-1R internalization (in words) (human SNAP-tagged GLP-1R [2]; compared to native GLP-1): comparable to native GLP-1 and GLP-2
Relative hGLP-1R internalization (%) (human SNAP-tagged GLP-1R [2]; relative to hGLP-1 = 100): 112.59%
Emax (human GLP-2R; COS-7, normalized to highest concentration of the endogenous ligand, read-out: Efficacy GLP-2R (Emax)): 104%
EC50 (human GLP-2R; cAMP, COS-7 cells, human GLP-2R, read-out: EC50 (nM) GLP-2R): 0.6 nM
Absolute hGIPR internalization (AUC) (human SNAP-tagged GIPR; [8]): 10.2
GIPR internalization (in words) (human SNAP-tagged GIPR; compared to native GIP): reduced internalization compared to native GIP
Relative hGIPR internalization (%) (human SNAP-tagged GIPR; relative to hGIP 1-42 = 100): 28%

HADGTFTSDYSIILDK([AEEA-AEEA-γGlu-C18 diacid])LAARDFINWLIQTKGKKNDWKHNITQ-OH [Compound 20]
EC50 (nM) GLP-1R [3]: 0.04 nM
Efficacy GLP-1R [3]: 112
logEC50 GLP-1R [3]: 10.4
Absolute hGLP-1R internalization (AUC) (human SNAP-tagged GLP-1R [4]): 91.8 AUC
Relative hGLP-1R internalization (%) (human SNAP-tagged GLP-1R [4]): 109%
Absolute hGLP-2R internalization (AUC) (human SNAP-tagged GLP-2R): 39.4 AUC
Relative hGLP-2R internalization (%) (human SNAP-tagged GLP-2R): 81%
Absolute hGIPR internalization (AUC) [5]: 14.2 AUC
Relative hGIPR internalization (%) [5]: 38%
EC50 (nM) GLP-2R [6]: 0.3 nM
Efficacy GLP-2R [6]: 100
logEC50 GLP-2R [6]: 9.5
potency in Gs activation, measured as cAMP accumulation (-p Log EC50) [7]: < 7 -p Log EC50
